# Where two headings read alike, the source gives them in different places.
# What was measured:
# U937 [1] = test: Secondary dose-response HTS, Cell Titer Glo; type: cell-based, human; settings: secondary high-throughput screen, U937, read-out: average effective concentration, U937
# M07e [2] = test: Secondary dose-response HTS, Cell Titer Glo; type: cell-based, human; settings: secondary high-throughput screen; for EC50: read-out: average effective concentration, M07e
# MOLM-13 [3] = test: cells; set-up: species or system AML cell lines (8); Secondary HTS, 10-point dose-response in triplicate, Cell Titer Glo viability, four-parameter fit EC50; settings: Homo sapiens, MOLM-13, 72 h, read-out: MOLM-13
# MV4-11 [4] = test: cells; set-up: species or system AML cell lines (8); Secondary HTS, 10-point dose-response in triplicate, Cell Titer Glo viability, four-parameter fit EC50; settings: Homo sapiens, MV4-11, 72 h, read-out: MV4-11
# ML2 = test: Secondary dose-response HTS, Cell Titer Glo; type: cell-based, human; settings: secondary high-throughput screen, ML-2, read-out: average effective concentration, ML-2
# CHRF288-11 = test: Secondary dose-response HTS, Cell Titer Glo; type: cell-based, human; settings: secondary high-throughput screen, CHRF288-11; for EC50: Homo sapiens, HTS, read-out: average effective concentration, CHRF288-11
# CMS [5] = test: cells; set-up: species or system AML cell lines (8); Secondary HTS, 10-point dose-response in triplicate, Cell Titer Glo viability, four-parameter fit EC50; settings: 72 h, read-out: CMS
# CMK [6] = test: Secondary dose-response HTS, Cell Titer Glo; type: cell-based, human; settings: CMK; for EC50: Homo sapiens, read-out: average effective concentration, CMK
# MV4-11 [7] = test: Secondary dose-response HTS, Cell Titer Glo; type: cell-based, human; settings: secondary high-throughput screen, MV4-11; for EC50: Homo sapiens, read-out: average effective concentration, MV4-11
# MOLM-13 [8] = test: Secondary dose-response HTS, Cell Titer Glo; type: cell-based, human; settings: secondary high-throughput screen, MOLM-13; for EC50: read-out: average effective concentration, MOLM-13
# CMK [9] = test: cells; set-up: species or system AML cell lines (8); Secondary HTS, 10-point dose-response in triplicate, Cell Titer Glo viability, four-parameter fit EC50; settings: Homo sapiens, CMK, 72 h, read-out: CMK
# CMS [10] = test: Secondary dose-response HTS, Cell Titer Glo; type: cell-based, human; settings: Homo sapiens, HTS; secondary high-throughput screen; CMS; read-out: average effective concentration, CMS
# M07e [11] = test: cells; set-up: species or system AML cell lines (8); Secondary HTS, 10-point dose-response in triplicate, Cell Titer Glo viability, four-parameter fit EC50; settings: M-07e, 72 h, read-out: M07e
# U937 [12] = test: cells; set-up: species or system AML cell lines (8); Secondary HTS, 10-point dose-response in triplicate, Cell Titer Glo viability, four-parameter fit EC50; settings: Homo sapiens, U-937, 72 h, read-out: U937
# [13] = secondary high-throughput screen
Structure (SMILES),"EC50 (U937 [1]; Homo sapiens, U-937) [nM]","EC50 (M07e [2]; Homo sapiens, M-07e, M07e) [nM]",EC50 (ML2; Homo sapiens) [nM],EC50 (CHRF288-11) [nM],EC50 (CMS [5]) [nM],EC50 (CMK [6]; [13]) [nM],EC50 (MV4-11 [7]) [nM],EC50 (MOLM-13 [8]; Homo sapiens) [nM],"average effective concentration, MV4-11 (MV4-11 [7])",also measured
Cn1ncnc1[C@H]1c2n[nH]c(=O)c3cc(F)cc(c23)N[C@@H]1c1ccc(F)cc1 [BMN 673],3600,9200,79,74,> 10000,210,–,–,–,EC50 (MOLM-13 [3]): > 10000 nM; EC50 (MV4-11 [4]): > 10000 nM
COc1cc(Nc2c(C#N)cnc3cc(OCCCN4CCN(C)CC4)c(OC)cc23)c(Cl)cc1Cl [BOSUTINIB],3800,4800,10000,3800,> 10000,–,3800,2700,–,EC50 (CMK [6]): 1100 nM
O=C(/C=C/c1cccc(C(=O)NO)c1)NO [CBHA],–,–,–,–,–,–,–,–,Inactive,"EC50 (U937 [1]): 1300 nM; EC50 (M07e [2]; M07e): 2200 nM; EC50 (MOLM-13 [8]): 2400 nM; EC50 (ML2): 5200 nM; average effective concentration, CMK (CMK [6]; [13]): Inactive"
Cn1c(Nc2ccc(C(F)(F)F)cc2)nc2cc(Oc3ccnc(-c4ncc(C(F)(F)F)[nH]4)c3)ccc21 [CHIR-265],–,–,> 10000,6800,–,–,–,–,–,EC50 (CMK [9]): > 10000 nM; EC50 (MOLM-13 [3]): > 10000 nM; EC50 (CMS [10]): 10000 nM; EC50 (MV4-11 [4]): > 10000 nM; EC50 (M07e [11]): > 10000 nM; EC50 (U937 [12]): > 10000 nM
Nc1ncn([C@@H]2O[C@H](CO)[C@@H](O)[C@H]2O)c(=O)n1 [Compound 5-AZACYTIDINE],–,–,–,–,–,–,–,–,Inactive,"average effective concentration, M07e (M07e [2]; M07e): Inactive; average effective concentration, CHRF288-11 (CHRF288-11): Inactive"
CC(C)c1cccc(C(C)C)c1N1C(=O)c2ccc(O)cc2C1=O [Compound 5HPP-33],–,–,–,–,–,–,–,–,Inactive,"average effective concentration, M07e (M07e [2]; M07e): Inactive; average effective concentration, MOLM-13 (MOLM-13 [8]): Inactive; average effective concentration, CHRF288-11 (CHRF288-11): Inactive; average effective concentration, CMK (CMK [6]; [13]): Inactive"
CN[C@@H]1C[C@H]2O[C@@](C)([C@@H]1OC)n1c3ccccc3c3c4c(c5c6ccccc6n2c5c31)C(=O)N[C@H]4O [Compound 7-HYDROXYSTAUROSPORINE],–,–,–,–,–,–,–,–,–,"average effective concentration, M07e (M07e [2]; […]): Inactive"
O=C(/C=C/c1cccnc1)NCCCCC1CCN(C(=O)c2ccccc2)CC1 [DAPORINAD],1,1,1,12,> 10000,1,1,1,–,–
COc1cccc2c1C(=O)c1c(O)c3c(c(O)c1C2=O)C[C@@](O)(C(C)=O)C[C@@H]3O[C@H]1C[C@H](N)[C@H](O)[C@H](C)O1 [DAUNORUBICIN],4.3,–,1,1,–,35,23,43,–,"EC50 (M07e [2]; Homo sapiens, M-07e, […]): 9 nM"
CC(C)(C#N)c1ccc(N2C(=O)OCc3cnc4ccc(-c5cnc6ccccc6c5)cc4c32)cc1 [ETP-46464],–,–,–,–,–,–,–,–,Inactive,"average effective concentration, M07e (M07e [2]; […]): Inactive; average effective concentration, MOLM-13 (MOLM-13 [8]): Inactive"
N#CN=C(NCCCCCCOc1ccc(Cl)cc1)Nc1ccncc1 [GMX-1778],5,–,0.35,0.48,> 10000,5.6,1.1,3.6,–,"EC50 (M07e [2]; Homo sapiens, M-07e, […]): 0.52 nM"
CCc1c2c(nc3ccc(OC(=O)N4CCC(N5CCCCC5)CC4)cc13)-c1cc3c(c(=O)n1C2)COC(=O)[C@]3(O)CC [IRINOTECAN],10000,> 10000,4000,4500,> 10000,–,3100,2500,–,EC50 (CMK [9]): > 10000 nM
